Among the data in patent US20040024024A1, “Aromatic sulfone hydroxamates and their use as protease inhibitors” (priority 2001, published 2004) are Ki values, retold here.

In one test the target is T1, Human recombinant MMP-13 (Homo sapiens, UniProt P45452).
T1 construct: made in house; host or cells: baculovirus / insect cells
The experiment in a line: In vitro MMP inhibition, Ki determination (fluorogenic substrate II). Format: biochemical. The following applies: value in parentheses. The protocol:
Several hydroxamates and salts thereof were analyzed in in vitro assays to determine their ability to inhibit the MMP cleavage of peptide substrates. Inhibition (Ki) and IC50 constants were calculated from the assayed hydroxamate-MMP interactions.
Human recombinant MMP-1, MMP-2, MMP-9, MMP-13, and MMP-14 were used in this assay. All enzymes were prepared in Assignee's laboratories following usual laboratory procedures. Protocols for the preparation and use of these enzymes are available in the scientific literature. See, e.g., Enzyme Nomenclature (Academic Press, San Diego, Calif., 1992) (and the citations therein). See also, Frije et al., J. Biol. Chem., 26(24), 16766-73 (1994).
The expressed proenzyme was first purified over a heparin agarose column, and then over a chelating zinc chloride column. The proenzyme was then activated by APMA for use in the assay. Further details on baculovirus expression systems may be found in, for example, Luckow et al., J. Virol., 67, 4566-79 (1993). See also, O'Reilly et al, Baculovirus Expression Vectors: A Laboratory Manual (W. H. Freeman and Co., New York, N.Y., 1992). See also, King et al., The Baculovirus Expression System: A Laboratory Guide (Chapman & Hall, London, England, 1992).
All MMPs were activated using 4-aminophenylmercuric acetate (“APMA”, Sigma Chemical, St. Louis, Mo.) or trypsin. MMP-9 also was activated using human recombinant MMP-3 (purified in Assignee's laboratory following standard cloning and purification techniques).
Two fluorogenic, methoxycoumarin-containing polypeptide substrates were used in the MMP inhibition assays:
MCA-ArgProLeuGlyLeuDpaAlaArgGluArgNH2 (II)
Here, “Dpa” is 3-(2,4-dinitrophenyl)-L-2,3-diaminopropionyl group, and “MCA” is 7-methoxycoumarin-4-yl acetyl. Substrate (I) was purchased from Baychem (Redwood City, Calif.), and substrate II was prepared Assignee's laboratory. Substrate I was used in the IC50 determination assays, while substrate II was used in the Ki determination assays. In the absence of MMP inhibitory activity, either substrate is cleaved at the Gly-Leu peptide bond. This cleavage separates the highly fluorogenic peptide from the 2,4-dinitrophenyl quencher, thus resulting in increase of fluorescent intensity.
The stock solutions of the assayed hydroxamates (or salts thereof) were prepared in 1% dimethyl sulfoxide (DMSO). These stock solutions were diluted in Buffer A (100 mM Tris-HCl, 100 mM NaCl, 10 mM CaCl2, 0.05% polyoxyethylene 23 lauryl ether, pH 7.5) to obtain solutions with different hydroxamate concentrations, i.e., assay solutions with different concentrations of the assayed MMP inhibitory compound. The experiment controls contained the same amount of Buffer A/DMSO as the assayed sample, but contained no hydroxamate (or salt thereof).
The assays from which the Ki determinations were made were performed as follows. The assayed hydroxamate samples were incubated in separate wells of untreated white polystyrene plates (Nunc Nalgene International, Rochester, N.Y.), and analyzed on a Tecan SpectraFlour Plus plate reader. The excitation wavelength was 330 nm, and the emission wavelength—420 nm. All samples (assayed hydroxamates and controls) were incubated in separate plate wells at room temperature for 1 hr in the presence of 4 μM of MMP substrate (II). In the absence of MMP inhibitory activity, substrate II was cleaved at the Gly-Leu bond resulting in an increase of relative fluorescence. Inhibition was observed as a reduced rate of this increase in relative fluorescence. The various hydroxamates were analyzed using a single low enzyme concentration with a single substrate concentration fixed at or below the Km. This protocol is a modification of method by Knight et al., FEBS Lett., 296(3), 263-266 (1992). Apparent inhibitory constants were determined by non-linear regression of reaction velocity as a function of inhibitor and enzyme concentration using Morrison's equation, as described by Kuzmic, Anal. Biochem. 286, 45-50 (2000). […]
In the case of `O=C(NO)C1(S(=O)(=O)c2ccc(OCCCc3cncc(-c4ccc(F)cc4)c3)cc2)CCOCC1` [Example 523], the Ki – broadly, a dissociation constant, usually derived from enzyme kinetics or from competition with a known ligand – worked out at 0.234 nM. In the case of `O=C(NO)C1(S(=O)(=O)c2ccc(OCCCc3cncc(-c4ccccc4)c3)cc2)CCOCC1` [Example 524], the inhibition constant Ki was 0.244 nM. `O=C(COc1ccc(S(=O)(=O)C2(C(=O)NO)CCOCC2)cc1)c1cccc(-c2ccccc2)c1` [Example 563]: the Ki was 0.7 nM.

Take `O=C(CCCOc1ccc(S(=O)(=O)C2(C(=O)NO)CCOCC2)cc1)Nc1cccc(I)c1` [Example 570]: the Ki turned out to be 0.142 nM.

For `O=C(NO)C1(S(=O)(=O)c2ccc(OCCCc3cccc(-n4ccnc4)c3)cc2)CCOCC1` [Example 574], the Ki was determined as 1.32 nM. As for `O=C(NO)C1(S(=O)(=O)c2ccc(OCCCc3nc(-c4cccnc4)no3)cc2)CCOCC1` [Example 578], the Ki was 1.72 nM. As to `O=C(NO)C1(S(=O)(=O)c2ccc(OCCCc3nc(-c4ccccc4)no3)cc2)CCOCC1` [Example 584], the inhibition constant Ki turned out to be 0.944 nM. Same read-out and setting: under `O=C(NO)C1(S(=O)(=O)c2ccc(OCCCc3cc(-c4ccc(F)cc4F)cs3)cc2)CCOCC1` [Example 587] stands 1.42 nM. In the case of `CCN1CCC(C(=O)NO)(S(=O)(=O)c2ccc(OCCCSc3nc4ccccc4s3)cc2)CC1` [Example 591], the Ki was determined as 0.19 nM. On to `O=C(NO)C1(S(=O)(=O)c2ccc(OCCCc3cccc(-c4cccs4)c3)cc2)CCOCC1` [Example 595], for which the inhibition constant Ki was 7.25 nM.

For `O=C(Cc1csc2ccccc12)NCCOc1ccc(S(=O)(=O)C2(C(=O)NO)CCOCC2)cc1` [Example 596], the inhibition constant Ki came to 0.398 nM. Regarding `O=C(NCCOc1ccc(S(=O)(=O)C2(C(=O)NO)CCOCC2)cc1)c1cc2ccccc2[nH]1` [Example 599], the Ki stood at 0.24 nM.

Turning to `O=C(NO)C1(S(=O)(=O)c2ccc(OCCCc3cc(-c4ccc(OC(F)(F)F)cc4)cs3)cc2)CCOCC1` [Example 608], the Ki turned out to be 9.34 nM. Same read-out and setting: under `N#Cc1ccc(-c2cccc(CCCOc3ccc(S(=O)(=O)C4(C(=O)NO)CCOCC4)cc3)c2)cc1` [Example 624] stands 0.9 nM; under `O=C(NO)C1(S(=O)(=O)c2ccc(OCCCc3cccc(-c4ccc(C(F)(F)F)cc4)c3)cc2)CCOCC1` [Example 625], 43.6 nM; under `O=C(NO)C1(S(=O)(=O)c2ccc(OCCCc3cccc(-c4ccc([N+](=O)[O-])cc4)c3)cc2)CCOCC1` [Example 626], 7.5 nM. For `O=C(NO)C1(S(=O)(=O)c2ccc(OCCCc3cccc(-c4ccc5c(c4)OCCO5)c3)cc2)CCOCC1` [Example 627], the Ki came out at 40.9 nM. Take `O=C(NO)C1(S(=O)(=O)c2ccc(OCCCc3cccc(-c4ccc5c(c4)OCO5)c3)cc2)CCOCC1` [Example 628]: the inhibitory constant (Ki) came to 19.8 nM. Take `O=C(NO)C1(S(=O)(=O)c2ccc(OCCCc3cccc(-c4ccc5ccccc5c4)c3)cc2)CCOCC1` [Example 629]: the Ki amounted to 89.1 nM. Take `O=C(NO)C1(S(=O)(=O)c2ccc(OCCCc3cccc(-c4ccc(F)cc4F)c3)cc2)CCOCC1` [Example 630]: the inhibitory constant (Ki) was determined as 6.02 nM. Same read-out and setting: under `O=C(NO)C1(S(=O)(=O)c2ccc(OCCCc3cccc(-c4csc5ccccc45)c3)cc2)CCOCC1` [Example 631] stands 57.6 nM; under `O=C(NO)C1(S(=O)(=O)c2ccc(OCCCc3cccc(-c4ccsc4)c3)cc2)CCOCC1` [Example 632], 6.54 nM; under `O=C(NO)C1(S(=O)(=O)c2ccc(OCCCc3cccc(-c4cc5ccccc5s4)c3)cc2)CCOCC1` [Example 633], 92.4 nM. Consider `O=C(NO)C1(S(=O)(=O)c2ccc(OCCCc3cccc(-c4coc5ccccc45)c3)cc2)CCOCC1` [Example 634], for which the inhibition constant (Ki) came out at 19.4 nM. Turning to `C=Cc1ccc(-c2cccc(CCCOc3ccc(S(=O)(=O)C4(C(=O)NO)CCOCC4)cc3)c2)cc1` [Example 635], the inhibition constant Ki amounted to 26.2 nM. Same read-out and setting: under `O=C(NO)C1(S(=O)(=O)c2ccc(OCCCc3cccc(-c4ccccc4O)c3)cc2)CCOCC1` [Example 636] stands 3.21 nM; under `O=C(NO)C1(S(=O)(=O)c2ccc(OCCCc3cccc(-c4ccoc4)c3)cc2)CCOCC1` [Example 637], 4.63 nM. Regarding `O=C(NO)C1(S(=O)(=O)c2ccc(OCCCc3cccc(-c4cccc5ccccc45)c3)cc2)CCOCC1` [Example 638], the inhibition constant (Ki) is 68.1 nM. As to `Cc1ccc(-c2cccc(CCCOc3ccc(S(=O)(=O)C4(C(=O)NO)CCOCC4)cc3)c2)s1` [Example 639], the Ki stood at 12.5 nM.

The test is the same for the next values; noted with them: value in parenthesis.
As for `COc1ccc(/C(C#N)=C/CCCOc2ccc(S(=O)(=O)C3(C(=O)NO)CCN(C4CC4)CC3)cc2)cc1` [Example 233], the inhibitory constant (Ki) came to 0.137 nM.

As for `CN(C(=O)CCCOc1ccc(S(=O)(=O)C2(C(=O)NO)CCOCC2)cc1)c1ccc(OC(F)(F)F)cc1` [Example 249], the inhibition constant Ki amounted to 1.49 nM. For `O=C(CCCOc1ccc(S(=O)(=O)C2(C(=O)NO)CCOCC2)cc1)Nc1ccc(OC(F)(F)F)cc1` [Example 250], the Ki came out at 0.127 nM. For the compound `Cc1cc(NC(=O)CCCOc2ccc(S(=O)(=O)C3(C(=O)NO)CCOCC3)cc2)ccc1OC(C)C` [Example 290], the Ki was 0.547 nM.
